Patent US4064254A, “Substituted piperidines therapeutic process and compositions” (Mead Johnson & Company, priority 1976, dated 1977)
In brackets after ≈: the same amount, converted by molar mass.

Tests used:
[1] = system: aconitine induced arrhythmia in the dog; test: aconitine induced atrial arrhythmia in the anesthetized dog, intravenous; format: in vivo; conditions: Canis lupus familiaris, read-out: effective dose restoring normal cardiac rhythm, aconitine induced arrhythmia
Source text: (§1) The chest of an anesthetized dog is opened in the midline and the right and left atrial appendages exposed through small slits in the pericardium. Bypolar recording electrodes are affixed to the atrial surfaces and a 4 × 4 mm. piece of clean cloth is fixed to the surface of the right auricular appendage. Control recordings are made of various heart functions including femoral arterial blood pressure and right and left atrial electrograms. Atrial arrhythmia is then induced by placing 3-5 drops of a solution of aconitine on the cloth which is fixed to the right atrium. […] Throughout the experiment, fresh aconitine is (2-3 drops) placed on the cloth at 10 minute intervals.

[2] = system: electrically induced arrhythmia in the dog; test: electrically induced arrhythmia in the dog; format: in vivo; conditions: Canis lupus familiaris, iv
[3] = system: aconitine induced arrhythmia in the dog; test: prevention of aconitine induced arrhythmia in the dog, intraduodenal administration; format: in vivo; conditions: Canis lupus familiaris, read-out: effective dose in the prevention of aconitine induced arrhythmia
Source text: as §1

[4] = system: chloroform induced arrhythmia in the mouse; test: inhibition of chloroform induced arrhythmia in the mouse (Lawson); format: in vivo; conditions: ip, intraperitoneal, read-out: ED50, prevention of chloroform induced arrhythmia
Source text: Another in vivo test involves the inhibition of chloroform induced arrhythmia in the mouse according to the method of J. W. Lawson, J. Pharmacol. Exp. Therap., 160, 22 (1968).

rabbit atrium = test: in vitro rabbit atrium test (refractory period); format: cell-based; conditions: Oryctolagus cuniculus; rabbit left atrium, 30° C., stimulated at 30 per minute; read-out: EC50 (50% of maximal increase in refractory period)
Method: In this test, the left atrium is placed in Chenoweth's solution warmed to 30° C. and irrigated with 95% oxygen: 5% carbon dioxide. The lower end of the atrium is attached to a small hook fixed in the bath and the upper end is connected to a transducer to record contractile activity. […] A test compound is introduced into the bath and the test repeated after a 5 minute interval. A dose-response relationship is obtained by additional doses of the test compound. […] This value is designated the EC50.

serotonin (rat uterus) = test: antiserotonin activity in the rat uterus (spasmogenic effect of serotonin); format: cell-based; conditions: rat uterine horn, 30° C., 0.4 microgram per milliliter of serotonin; read-out: IC50 (decrease of spasmogenic effect of serotonin by 50%)
Method: According to this test one of the uterine horns of a rat uterus is suspended in oxygenated salt solution at 30° C. The contractions of this tissue are then recorded and varying concentrations of the test compound introduced into the bath in order to determine the concentration that would decrease the spasmogenic effect of 0.4 microgram per milliliter of serotonin by 50%. This value is designated the IC50.

[5] = system: serotonin in the brain in mice; test: antiserotonin activity in mice, 5-hydroxytryptophan / monoamine oxidase inhibitor (Corne); format: in vivo; conditions: Mus musculus
Source text: This test is dependent on the metabolism of 5-hydroxytryptophan to serotonin in the brain in mice which are pretreated with a monamine oxidase inhibitor.

Compound | minimal effective dose [1] [mg/kg] | minimal effective dose [2] [mg/kg] | minimal effective dose [3] [mg/kg] | ED50 [4] [mg/kg] | EC50 (rabbit atrium) [mg/L] | IC50 (serotonin (rat uterus)) [mg/L] | ED50 ([5]; ip, 1 h, intraperitoneal, 60 minute pretreatment) [mg/kg] | ED50 ([5]; sc, 0.5 h, subcutaneous, 30 minute pretreatment) [mg/kg] | ED50 ([5]; sc, 1 h, subcutaneous, 60 minute pretreatment) [mg/kg]
C=C[C@H]1C[N@@]2CC[C@H]1C[C@@H]2[C@@H](O)c1ccnc2ccc(OC)cc12 [quinidine, reference compound] | 6 | 14 | > 14 | 83 | 18 (≈ 55.5 µM) | – | – | – | –
CN1CCCCC1CCc1ccccc1N (centres unmarked) [2-(o-Aminophenethyl)-1-methylpiperidine, 2-(O-Aminophenethyl)-1-methylpiperidine] | – | – | – | – | 44 (≈ 202 µM) | – | – | – | –
COc1ccc(C(=O)Nc2ccccc2CCC2CCCCN2C)cc1 (centres unmarked) [4-methoxy-2'-[2-(1-methyl-2-piperidyl)ethyl]benzanilide] | 0.8 | 1.9 | < 10 | 7.1 | 2.4 (≈ 6.81 µM) | 0.0046 (≈ 0.0131 µM) | – | – | –
CCN(CC)C(=O)[C@@H]1C=C2c3cccc4[nH]cc(c34)C[C@H]2N(C)C1 [lysergide, reference compound] | – | – | – | – | – | 0.012 (≈ 0.0371 µM) | – | – | –
CN1CCCCC1CCc1ccccc1NC(=O)C=Cc1ccccc1 (centres unmarked) [2'-[2-(1-Methyl-2-piperidyl)ethyl]-cinnamanilide] | – | – | – | – | – | 0.00185 (≈ 0.00531 µM) | 21 | 4.3 | 10
